Here are results for twelve compounds from patent US9309263B2, “Fused multi-cyclic sulfone compounds as inhibitors of beta-secretase and methods of use thereof” (AMGEN INC., priority 2013, dated 2016).

Like-named read-outs stand apart in the source and are kept apart here.

Assay [1] deals with Beta Secretase enzyme (BACE) (Homo sapiens, UniProt P56817). Description: In vitro enzymatic BACE FRET assay. The format is biochemical. The following applies: read-out: BACE1 FRET assay IC50. As for the experimental part: In Vitro Enzymatic BACE FRET (Fluorescence Resonance Energy Transfer) Assay (Enzyme Assay Data in the Example Table I)
Sequence of Beta Secretase enzyme (BACE) (P56817 46-501): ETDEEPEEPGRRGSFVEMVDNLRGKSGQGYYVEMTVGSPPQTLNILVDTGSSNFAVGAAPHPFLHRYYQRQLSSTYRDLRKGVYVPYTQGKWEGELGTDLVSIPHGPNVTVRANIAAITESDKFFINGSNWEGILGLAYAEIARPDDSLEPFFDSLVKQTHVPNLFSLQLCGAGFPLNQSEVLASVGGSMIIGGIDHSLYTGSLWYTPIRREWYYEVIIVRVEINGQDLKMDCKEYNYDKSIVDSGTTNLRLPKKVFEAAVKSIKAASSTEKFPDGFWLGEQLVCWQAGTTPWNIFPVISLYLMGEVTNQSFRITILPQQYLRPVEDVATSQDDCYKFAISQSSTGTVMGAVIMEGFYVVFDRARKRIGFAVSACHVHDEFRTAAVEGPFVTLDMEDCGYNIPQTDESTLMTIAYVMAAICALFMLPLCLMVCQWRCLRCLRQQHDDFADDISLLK
The assay buffer used in this screen is 0.05 M acetate, pH 4.2, 10% DMSO final, 100 uM genapol (which is a nonionic detergent, below its Critical Micelle Concentration). The Beta Secretase enzyme (0.2 nM) is pre-incubated for one hour with inhibitors, typically in about 1 uL of DMSO according to a serial dilution, are added thereto. This assay is effectively started by the addition of FRET substrate (50 nM) and the combination is incubated for one hour. The FRET assay is terminated with by addition of Tris buffer, which raises the pH to neutrality, and the fluorescence is determined. The FRET substrate is a peptide with commercially available fluorophore and quencher, on opposite sides of the BACE cleavage site. Proteolytic cleavage of the FRET substrate releases quenching of fluorescence (excitation 488 nm and […]).

Assay [2] deals with Aβ 40 in conditioned medium of cells stably expressing Amyloid Precursor Protein (APP). The assay is described as follows: In vitro BACE cell-based assay (Aβ 40 sandwich ELISA). The settings on record: Homo sapiens, HEK293. As for the experimental part:
In Vitro BACE Cell-Based Assay
The cell-based assay measures inhibition or reduction of […] in conditioned medium of test compound treated cells expressing amyloid precursor protein.
Cells stably expressing Amyloid Precursor Protein (APP) were plated at a density of 40K cells/well in 96 well plates (Costar). The cells were cultivated for 24 hours at 37° C. and 5% CO2 in DMEM supplemented with 10% FBS. The test compounds were then added to cells in 10-point dose response concentrations with the starting concentration being either 100 μM or 10 μM. The compounds were diluted from stock solutions in DMSO and the final DMSO concentration of the test compounds on cells was 0.1%. After 24 h of incubation with the test compounds the supernatant conditioned media was collected and the Aβ 40 levels were determined using a sandwich ELISA. The IC50 of the compound was calculated from the percent of control or percent inhibition of Aβ 40 as a function of the concentration of the test compound.
The sandwich ELISA to detect Aβ 40 was performed in 96 well microtiter plates, which were pre-treated with goat anti-rabbit IgG (Pierce). The capture and detecting antibody pair that were used to detect Aβ 40 from cell supernatants were affinity purified pAb40 (Biosource) and biotinylated 6E10 (Signet Labs Inc.), respectively. The optimal concentration for the pAb40 antibody was 3 μg/ml in Superblock/TBS (Pierce) that was supplemented with 0.05% Tween 20 (Sigma). Optimal concentration for the detection antibody 6E10-biotinylated was 0.5 μg/ml in Superblock/TBS (Pierce) that had been supplemented with 2% normal goat serum and 2% normal mouse serum.
Cellular supernatants were incubated with the capture antibody for 3 h at 4° C., followed by 3 wash steps in TBS-tween (0.05%). The detecting antibody incubation was for 2 h at 4° C., again followed by the wash steps as described previously. The final readout of the ELISA is Time-Resolved Fluorescence (counts per minute) using Delfia reagents Streptavidin-Europium and Enhancement solutions (Perkin Elmer) and the Victor 2 multilabel counter (Perkin Elmer).
In general terms: An ELISA detects its analyte on a solid surface through an enzyme-linked reagent.

For the next assay, the target named is Cathepsin D (Cat D) (Homo sapiens, UniProt P07339). Description: In vitro enzymatic Cathepsin D (Cat D) FRET assay. Type of assay: biochemical. The method, then: In Vitro Enzymatic Cathepsin D (Cat D) FRET (Fluorescence Resonance Energy Transfer) Assay
Sequence of Cathepsin D (Cat D) (P07339 65-412, species assumed): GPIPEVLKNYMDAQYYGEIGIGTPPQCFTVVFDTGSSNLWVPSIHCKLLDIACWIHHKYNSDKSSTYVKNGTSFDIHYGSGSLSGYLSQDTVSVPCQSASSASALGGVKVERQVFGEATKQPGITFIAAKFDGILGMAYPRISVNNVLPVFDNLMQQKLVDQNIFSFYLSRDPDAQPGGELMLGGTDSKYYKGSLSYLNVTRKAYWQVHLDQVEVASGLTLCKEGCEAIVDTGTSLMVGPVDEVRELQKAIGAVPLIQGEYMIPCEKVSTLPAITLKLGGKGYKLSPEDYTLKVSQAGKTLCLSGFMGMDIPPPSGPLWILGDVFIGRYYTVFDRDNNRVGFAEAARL
Recombinant Cat D was expressed in CHO cells. The assay buffer for CathepsinD is 0.05 M citrate pH 3.5, 10% DMSO final, 5 mM CHAPS. The Cat D enzyme (9 nM) is pre-incubated for one hour with inhibitors, typically in about 1 uL of DMSO according to a serial dilution, is added thereto. The assays are effectively started by the addition of different FRET substrates (20 nM for Cat D) and the combination is incubated for one hour. The FRET assay is terminated with by addition of Tris buffer, which raises the pH to neutrality, and the fluorescence is determined. The FRET substrate is a peptide with commercially available fluorophore and quencher, on opposite sides of the BACE cleavage site. The Cat D substrate peptide sequence is based on sequence #1 of Table 1 from Gulnik et al. FEBS Letters v413 p 379-384 1997. Proteolytic cleavage of the FRET substrate releases quenching of fluorescence (Cat D excitation 500 nm and emission 580 nm). […]
See, for instance, examples 8, 12, 15, 16, 18, 21-23, 24, 25, 26, 29, 30, 32, 41-42, 45, 53, 54, 57, 63, 67-69, 72-74, 76, 79-81, 83 & 84 (to point to just a few; referring to data in Table 2). […] See, for instance, examples 8, 12, 15, 18, 21-23, 25, 29, 30, 32, 41-42, 45, 54, 57, 67-68, 72-73, 76, 80-81, 84, 86, 91-92 & 100 (to point out those from compound examples 1-100; and with reference to data in Table 2).

[3] abbreviates: text summary referring to data in Table 2.
Setting [4] is: average IC50, in vitro enzymatic BACE FRET assay.
Where [5] appears, read: average IC50, HEK cell assay, Aβ 40 readout.
[6] abbreviates: Cathepsin D FRET assay, read-out: CatD IC50.

Broadly, the IC50 is the concentration that inhibits the measured activity by half.

For the compound `Cc1cc(OC(F)F)cnc1C(=O)Nc1ccc2c(c1)[C@@]1(C)N=C(N)C(C)(C)S(=O)(=O)[C@@H]1CCC2` [Example 41, N-((4aR,11bR)-2-amino-3,3,11b-trimethyl-4,4-dioxido-3,4a,5,6,7,11b-hexahydrobenzo[3,4]cyclohepta[1,2-b][1,4]thiazin-10-yl)-5-(difluoromethoxy)-3-methyl-2-pyridinecarboxamide], the IC50 is 0.018 µM in assay [1] (average IC50); 0.005 µM in assay [2] (HEK cell, average IC50); 5550 µM at Cathepsin D (Cat D) (read-out: CatD IC50); more than 1200 µM at Cathepsin D (Cat D) (setting [3]).
With `Cc1cc(Cl)cnc1C(=O)Nc1cnc2c(c1)[C@@]1(C)N=C(N)C(C)(C)S(=O)(=O)[C@H]1CCO2` [Example 20, N-((4aS,11bR)-2-amino-3,3,11b-trimethyl-4,4-dioxido-4a,5,6,11b-tetrahydro-3H-pyrido[3′,2′:6,7]oxepino[4,5-b][1,4]thiazin-10-yl)-5-chloro-3-methyl-2-pyridinecarboxamide], the IC50 in assay [1] (average IC50) came out at 0.019 µM; in assay [2] (HEK cell, average IC50), 0.022 µM; on Cathepsin D (Cat D) (read-out: CatD IC50), 377 µM.
With `COc1cnc2c(Nc3ccc4c(c3)[C@@]3(C)N=C(N)C(C)(C)S(=O)(=O)[C@@H]3C[C@H](C)O4)ncc(F)c2c1` [Example 52, (4aR,6S,11bR)-N^~10^~-(5-fluoro-3-methoxy-1,7-naphthyridin-8-yl)-3,3,6,11b-tetramethyl-4a,5,6,11b-tetrahydro-3H-[1]benzoxepino[4,5-b][1,4]thiazine-2,10-diamine 4,4-dioxide], the IC50 in assay [1] (average IC50) worked out at 0.014 µM; in assay [2] (HEK cell, average IC50), 0.022 µM; at Cathepsin D (Cat D) (read-out: CatD IC50) it was 174 µM.
For `Cc1cc(C(F)(F)F)cnc1C(=O)Nc1ccc2c(c1)[C@@]1(CF)N=C(N)C(C)(C)S(=O)(=O)[C@H]1CCO2` [Example 116, N-((4aS,11bS)-2-amino-11b-(fluoromethyl)-3,3-dimethyl-4,4-dioxido-4a,5,6,11b-tetrahydro-3H-[1]benzoxepino[4,5-b][1,4]thiazin-10-yl)-3-methyl-5-(trifluoromethyl)-2-pyridinecarboxamide], the IC50 in assay [1] (setting [4]) was 0.011 µM; in assay [2] (setting [5]), 0.014 µM; on Cathepsin D (Cat D) (setting [6]), more than 400 µM.
As to `C[C@H]1C[C@@H]2[C@](C)(N=C(N)C(C)(C)S2(=O)=O)c2cc(NC(=O)c3ccc(OCc4ncco4)cn3)ccc2O1` [Example 144, N-((4aR,6S,11bR)-2-amino-3,3,6,11b-tetramethyl-4,4-dioxido-4a,5,6,11b-tetrahydro-3H-[1]benzoxepino[4,5-b][1,4]thiazin-10-yl)-5-(1,3-oxazol-2-ylmethoxy)-2-pyridinecarboxamide], the 50% inhibitory concentration (IC50) in assay [1] (setting [4]) stood at 0.004 µM; in assay [2] (setting [5]), 0.003 µM; at Cathepsin D (Cat D) (setting [6]) it was 564 µM.
For the compound `Cc1cc(Cl)cnc1C(=O)Nc1cnc2c(c1)[C@@]1(C)N=C(N)C3(CCC3)S(=O)(=O)[C@@H]1CCO2` [Example 59, N-((4a′R,11b′R)-2′-amino-11b′-methyl-4′,4′-dioxido-4a′,5′,6′,11b′-tetrahydrospiro[cyclobutane-1,3′-pyrido[3′,2′:6,7]oxepino[4,5-b][1,4]thiazin]-10′-yl)-5-chloro-3-methyl-2-pyridinecarboxamide], the IC50 in assay [1] (average IC50) is 0.05 µM; in assay [2] (HEK cell, average IC50), 0.057 µM; at Cathepsin D (Cat D) (read-out: CatD IC50) it was more than 400 µM.
Take `CC#CCOc1cnc(C(=O)Nc2ccc3c(c2)[C@@]2(C)N=C(N)C(C)(C)S(=O)(=O)[C@@H]2C[C@H](C)O3)cn1` [Example 51, N-((4aR,6S,11bR)-2-amino-3,3,6,11b-tetramethyl-4,4-dioxido-4a,5,6,11b-tetrahydro-3H-[1]benzoxepino[4,5-b][1,4]thiazin-10-yl)-5-(2-butyn-1-yloxy)-2-pyrazinecarboxamide]: the IC50 in assay [1] (average IC50) came out at 0.001 µM; in assay [2] (HEK cell, average IC50), 0.0004 µM; at Cathepsin D (Cat D) (read-out: CatD IC50), 461 µM.
With `COc1cnc(C(=O)Nc2ccc3c(c2)[C@@]2(CF)N=C(N)C(C)(C)S(=O)(=O)[C@H]2C[C@H](C)O3)cn1` [Example 108, N-((4aS,6S,11bS)-2-amino-11b-(fluoromethyl)-3,3,6-trimethyl-4,4-dioxido-4a,5,6,11b-tetrahydro-3H-[1]benzoxepino[4,5-b][1,4]thiazin-10-yl)-5-methoxy-2-pyrazinecarboxamide], the IC50 in assay [1] (setting [4]) is 0.013 µM; in assay [2] (setting [5]), 0.018 µM; at Cathepsin D (Cat D) (setting [6]) it was 388 µM.
Regarding `C[C@H]1C[C@@H]2[C@](C)(N=C(N)C(C)(C)S2(=O)=O)c2cc(NC(=O)c3cnc(OCc4ncco4)cn3)ccc2O1` [Example 76, N-((4aR,6S,11bR)-2-amino-3,3,6,11b-tetramethyl-4,4-dioxido-4a,5,6,11b-tetrahydro-3H-[1]benzoxepino[4,5-b][1,4]thiazin-10-yl)-5-(1,3-oxazol-2-ylmethoxy)-2-pyrazinecarboxamide], the IC50 was 0.002 µM in assay [1] (average IC50); 0.0009 µM in assay [2] (HEK cell, average IC50); 1050 µM at Cathepsin D (Cat D) (read-out: CatD IC50); more than 1200 µM at Cathepsin D (Cat D) (setting [3]).
`CC1(C)C(N)=N[C@]2(C)c3cc(NC(=O)c4ccc(Cl)cn4)ccc3CCC[C@H]2S1(=O)=O` [Example 43, N-((4aR,11bR)-2-amino-3,3,11b-trimethyl-4,4-dioxido-3,4a,5,6,7,11b-hexahydrobenzo[3,4]cyclohepta[1,2-b][1,4]thiazin-10-yl)-5-chloro-2-pyridinecarboxamide]: the IC50 in assay [1] (average IC50) was determined as 0.012 µM; in assay [2] (HEK cell, average IC50), 0.019 µM; at Cathepsin D (Cat D) (read-out: CatD IC50) it was 458 µM.
Consider `Cc1cc(C(F)(F)F)cnc1C(=O)Nc1ccc2c(c1)[C@@]1(CF)N=C(N)C(C)(C)S(=O)(=O)[C@@H]1CCO2` [Example 119, N-((4aR,11bS)-2-amino-11b-(fluoromethyl)-3,3-dimethyl-4,4-dioxido-4a,5,6,11b-tetrahydro-3H-[1]benzoxepino[4,5-b][1,4]thiazin-10-yl)-3-methyl-5-(trifluoromethyl)-2-pyridinecarboxamide], for which the IC50 in assay [1] (setting [4]) worked out at 0.024 µM; in assay [2] (setting [5]) it was 0.019 µM; at Cathepsin D (Cat D) (setting [6]) it was 3360 µM.
Consider `CC#CCOc1cnc(C(=O)Nc2ccc3c(c2)[C@@]2(C)N=C(N)C(C)(C)S(=O)(=O)[C@]2(F)CCO3)cn1` [Example 94, N-((4aR,11bR)-2-amino-4a-fluoro-3,3,11b-trimethyl-4,4-dioxido-4a,5,6,11b-tetrahydro-3H-[1]benzoxepino[4,5-b][1,4]thiazin-10-yl)-5-(2-butyn-1-yloxy)-2-pyrazinecarboxamide], for which the IC50 is 0.008 µM in assay [2] (setting [5]) and more than 400 µM on Cathepsin D (Cat D) (setting [6]).
